Experimental data as given in patent US11919918B2, “P2X3 andor P2X2/3 receptor antagonist, pharmaceutical composition comprising same, and use thereof” (BEIJING TIDE PHARMACEUTICAL CO., LTD., priority 2017, dated 2024).

Legend:
[1] = target: human P2X3 receptor (Homo sapiens (Human), UniProt P56373); test: Inhibitory activity on human P2X3 receptor (calcium 6 dye FLIPR assay, agonist α,β-MeATP); assay type: cell-based; conditions: HEK293-P2X3 stably expressing cell line, FLIPR Tetra
Experimental: (§1) Biological Assay: Determination of the Inhibitory Activity of the Compounds on Human P2X3 and P2X2/3 Receptors
(§2) Cells were seeded into a poly-D-lysine-coated 384-well cell culture plate (Corning) at a density of 11,000 cells/well/25 μL of cell inoculation medium, and were cultured in a cell incubator overnight. On the day of the test, the calcium 6 dye was diluted to a 2× concentration with a assay buffer, 25 μL of the 2× calcium 6 dye was added to the 384-well cell culture plate, which was incubated at 37° C. for 2 hours, and then placed at room temperature for further use. The test compound and the agonist, α,β-MeATP were diluted to a 7× concentration with the assay buffer, 10 μL of the 7× test compound was added to the 384-well cell culture plate, which was incubated at room temperature for 15 minutes, and 10 μL of the 7× α,β-MeATP was transferred into the 384-well cell culture plate. The data were measured and analyzed using FLIPR Tetra, and the half inhibitory concentration (IC50) of the test compound on P2X3 and P2X2/3 receptors was calculated with the GraphPad Prism four-parameter equation.
(§3) Cell lines: human embryonic kidney cells HEK293-P2X3 and HEK293-P2X2/3 stably expressing cell lines;
(§4) Complete cell culture medium: DMEM High Glucose (Life Technology), which contained 10% fetal bovine serum, 4 mM GlutaMAX, 1% penicillin-streptomycin, and 350 μg/mL G418;
(§5) Cell inoculation medium: DMEM High Glucose (Life Technology), which contained 2% fetal bovine serum, and 4 mM GlutaMAX;
(§6) Cell culture conditions: 37° C., 5% CO2;
(§7) Assay buffer: HBSS (containing calcium and magnesium ions), which contained 20 mM HEPES;
(§8) Detection equipment: FLIPR Tetra (Molecular Devices);

[2] = target: human P2X2/3 receptor (Homo sapiens (Human), UniProt P56373+Q9UBL9); test: Inhibitory activity on human P2X2/3 receptor (calcium 6 dye FLIPR assay, agonist α,β-MeATP); assay type: cell-based; conditions: HEK293-P2X2/3 stably expressing cell line, FLIPR Tetra
Experimental: as §1, §2, §3, §4, §5, §6, §7, §8

Sequence of human P2X3 receptor (P56373 whole entry): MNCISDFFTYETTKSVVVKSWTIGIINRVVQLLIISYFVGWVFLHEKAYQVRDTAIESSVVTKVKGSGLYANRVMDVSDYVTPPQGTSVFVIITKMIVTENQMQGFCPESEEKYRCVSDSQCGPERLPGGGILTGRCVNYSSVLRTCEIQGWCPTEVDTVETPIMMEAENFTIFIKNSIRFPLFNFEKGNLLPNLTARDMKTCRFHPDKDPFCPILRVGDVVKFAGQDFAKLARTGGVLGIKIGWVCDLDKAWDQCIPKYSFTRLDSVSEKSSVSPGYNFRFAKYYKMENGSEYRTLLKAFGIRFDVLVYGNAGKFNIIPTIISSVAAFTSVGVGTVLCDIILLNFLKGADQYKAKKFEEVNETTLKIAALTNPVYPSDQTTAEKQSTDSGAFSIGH
Sequence of human P2X2/3 receptor (Q9UBL9 whole entry): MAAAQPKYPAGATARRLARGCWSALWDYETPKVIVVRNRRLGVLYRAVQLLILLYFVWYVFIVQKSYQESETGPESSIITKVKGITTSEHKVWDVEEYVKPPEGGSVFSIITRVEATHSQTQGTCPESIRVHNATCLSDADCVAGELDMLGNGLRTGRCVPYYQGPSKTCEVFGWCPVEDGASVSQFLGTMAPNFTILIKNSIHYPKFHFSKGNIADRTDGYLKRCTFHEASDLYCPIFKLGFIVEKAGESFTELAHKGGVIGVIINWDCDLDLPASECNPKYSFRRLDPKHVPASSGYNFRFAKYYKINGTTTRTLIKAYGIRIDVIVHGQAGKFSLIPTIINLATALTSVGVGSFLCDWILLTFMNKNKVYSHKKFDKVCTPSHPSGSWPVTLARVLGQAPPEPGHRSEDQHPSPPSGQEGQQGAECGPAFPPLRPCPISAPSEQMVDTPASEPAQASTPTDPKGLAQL
Sequence of human P2X2/3 receptor (P56373 whole entry): as the sequence (P56373 whole entry) above

Row | IC50 [1] [µM] | IC50 [2] [µM] | Compound
1 | 0.055 | 0.18 | C=Cc1cc(Oc2cnc(N)nc2N)c(C(C)C)cn1 [Compound C43]
2 | 0.084 | 0.078 | CC(C)CNc1nc(N)ncc1Oc1cc(Br)ncc1C(C)C [Compound C181, 5-((2-bromo-5-isopropylpyridin-4-yl)oxy)-N^4-isobutyl-pyrimidine-2,4-diamine]
3 | 0.391 | 0.685 | CC#Cc1cc(Oc2cnc(N)nc2N)c(C(C)C)cn1 [Compound C134, 5-((5-isopropyl-2-(prop-1-yn-1-yl)pyridin-4-yl)oxy) pyrimidine-2,4-diamine]
4 | 0.065 | 0.113 | C#Cc1cc(Oc2cnc(NCC(O)CO)nc2N)c(C(C)C)cn1 (centres unmarked) [Compound C229, 3-((4-amino-5-((2-ethynyl-5-isopropyl-pyridin-4-yl)oxy)pyrimidin-2-yl)amino) propane-l,2-diol]
5 | 0.144 | 0.209 | CC[C@@H](CO)Nc1nc(N)ncc1Oc1cc(Br)ncc1C(C)C [Compound C209, (S)-2-((2-amino-5-((2-bromo-5-isopropylpyridin-4-yl)oxy)pyrimidin-4-yl)amino)but-1-ol]
6 | 0.1 | 0.145 | CC(C)Nc1nc(N)ncc1Oc1cc(Br)ncc1C(C)C [Compound C174, 5-((2-bromo-5-isopropylpyridin-4-yl)oxy)-N^4-isopropyl-pyrimidine-2,4-diamine]
7 | 0.307 | 0.793 | CCc1cc(Oc2cnc(N)nc2N)c(C(C)C)cn1 [Compound C15, 5-((2-ethyl-5-isopropylpyridin-4-yl)oxy)pyrimidine-2,4-diamine]
8 | 0.116 | 0.209 | CNc1nc(N)ncc1Oc1cc(Br)ncc1C(C)C [Compound C172, 5-((2-bromo-5-isopropylpyridin-4-yl)oxy)-N^4-methyl-pyrimidine-2,4-diamine]
9 | 0.085 | 0.154 | C#Cc1cc(Oc2cnc(N)nc2N)c(C(C)C)cn1 [Compound C66, 5-((2-ethynyl-5-isopropylpyridin-4-yl)oxy)pyrimidine-2,4-diamine]
10 | 0.083 | 0.096 | CC(C)c1cnc(Br)cc1Oc1cnc(N)nc1NC(CO)CO [Compound C153, 2-((2-amino-5-((2-bromo-5-isopropylpyridin-4-yl)oxy)pyrimidin-4-yl)amino) propane-1,3-diol]
11 | 0.088 | 0.134 | CC(C)c1cnc(Br)cc1Oc1cnc(NCCO)nc1N [Compound C236, 2-((4-amino-5-((2-bromo-5-isopropyl-pyridin-4-yl)oxy)pyrimidin-2-yl)amino)ethanol]
12 | 0.215 | 0.113 | CC(C)c1cnc(C#Cc2ccc(N(C)C)cc2)cc1Oc1cnc(N)nc1N [Compound C148, 5-((2-((4-(dimethylamino)phenyl)ethynyl)-5-isopropylpyridin-4-yl)oxy) pyrimidine-2,4-diamine]
13 | 0.104 | 0.129 | CC(C)c1cnc(Br)cc1Oc1cnc(NC(CO)CO)nc1N [Compound C111, 2-((4-amino-5-((2-bromo-5-isopropyl-pyridin-4-yl)oxy)pyrimidin-2-yl)amino) propane-1,3-diol]
14 | 0.062 | 0.065 | C#Cc1cc(Oc2cnc(N)nc2NCC(O)CO)c(C(C)C)cn1 (centres unmarked) [Compound C216, 3-((2-amino-5-((2-ethynyl-5-isopropylpyridin-4-yl)oxy)pyrimidin-4-yl)amino)propane-1,2-diol]
15 | 0.227 | 0.271 | CSc1cc(Sc2cnc(N)nc2N)c(C(C)C)cn1 [Compound C91, 5-((5-isopropyl2-(methylthio)pyridin-4-yl)thio) pyrimidine-2,4-diamine]
16 | 0.051 | 0.043 | CC(C)c1cnc(Br)cc1Oc1cnc(N)nc1NC1CC1 [Compound C179, 5-((2-bromo-5-isopropylpyridin-4-yl)oxy)-N^4-cyclopropyl-pyrimidine-2,4-diamine]
17 | 0.316 | 0.498 | CC(C)c1cnc(Br)cc1Oc1cnc(N)nc1NCCOCCO [Compound C201, 2-(2-((2-amino-5-((2-bromo-5-isopropylpyridin-4-yl)oxy)pyrimidin-4-yl)amino)ethoxy) ethanol]
18 | 0.103 | 0.166 | CNCCNc1nc(N)ncc1Oc1cc(Br)ncc1C(C)C [Compound C202, 5-((2-bromo-5-isopropylpyridin-4-yl)oxy)-N^4-(2-(methylamino)ethyl)pyrimidine-2,4-diamine]

Row | IC50 [1] [µM] | IC50 [2] [µM] | Compound
19 | 0.736 | 0.978 | CC(C)c1cnc(CN)cc1Oc1cnc(N)nc1N [Compound C157, 5-((2-(aminomethyl)-5-isopropylpyridin-4-yl)oxy)pyrimidine-2,4-diamine]
20 | 0.053 | 0.069 | C=C(C)c1cnc(NC)cc1Oc1cnc(N)nc1N [C192]
21 | 0.809 | 0.623 | COc1cc(OC)c(C#Cc2cc(Oc3cnc(N)nc3N)c(C(C)C)cn2)c(OC)c1 [Compound C145, 5-((5-isopropyl-2-((2,4,6-trimethoxyphenyl)ethynyl)pyridin-4-yl)oxy)pyrimidine-2,4-diamine]
22 | 0.151 | 0.487 | CCSc1cc(Oc2cnc(N)nc2N)c(C(C)C)cn1 [Compound C117, 5-((2-(ethylthio)-5-isopropylpyridin-4-yl)oxy)pyrimidine-2,4-diamine]
23 | 0.0882 | 0.194 | C#Cc1cc(Oc2cnc(N)nc2N)c(C(=C)C)cn1 [Compound C215, 5-((2-ethynyl-5-(prop-1-en-2-yl)pyridin-4-yl)oxy) pyrimidine-2,4-diamine]
24 | 0.037 | 0.057 | CNc1cc(Oc2cnc(N)nc2N)c(C(C)C)cn1 [Compound C22, 5-((5-isopropyl-2-(methylamino)pyridin-4-yl)oxy)pyrimidine-2,4-diamine]
25 | 0.322 | 0.446 | CC(C)CNc1nc(N)ncc1Oc1cc(C2CC2)ncc1C(C)C [Compound C194, 5-((2-cyclopropyl-5-isopropyl-pyridin-4-yl)oxy)-N^4-isobutyl-pyrimidine-2,4-diamine]
26 | 0.157 | 0.275 | CC(C)c1cnc(Br)cc1Oc1cnc(N)nc1NCCN1CCOCC1 [Compound C203, 5-((2-bromo-5-isopropylpyridin-4-yl)oxy)-N^4-(2-morpholinoethyl) pyrimidine-2,4-diamine]
27 | 0.365 | 0.644 | CC(C)c1cnc(N(C)C)cc1Oc1cnc(N)nc1N [Compound C23, 5-((2-(dimethylamino)-5-isopropylpyridin-4-yl)oxy)pyrimidine-2,4-diamine]
28 | 0.109 | 0.222 | Cc1cc(Sc2cnc(N)nc2N)c(C(C)C)cn1 [Compound C92, 5-((5-isopropyl-2-methylpyridin-4-yl)thio) pyrimidine-2,4-diamine]
29 | 0.59 | 0.961 | CC(C)c1cnc(C#Cc2ccncc2)cc1Oc1cnc(N)nc1N [Compound C151, 5-((5-isopropyl-2-(pyridin-4-ylethynyl)pyridin-4-yl)oxy)pyrimidine-2,4-diamine]
30 | 0.131 | 0.2 | CC(C)c1cnc(N)cc1Oc1cnc(N)nc1N [Compound C21, 5-((2-amino-5-isopropylpyridin-4-yl)oxy)pyrimidine-2,4-diamine]
31 | 0.107 | 0.131 | CC(C)Nc1ncc(Oc2cc(Br)ncc2C(C)C)c(N)n1 [Compound C239, 5-((2-bromo-5-isopropylpyridin-4-yl)oxy)-N^2-isopropyl-pyrimidine-2,4-diamine]
32 | 0.269 | 0.399 | CC(C)c1cnc(Br)cc1Oc1cnc(N)nc1NCCN1CCCC1 [Compound C210, 5-((2-bromo-5-isopropylpyridin-4-yl)oxy)-N^4-(2-(pyrrolidin-1-yl)ethyl) pyrimidine-2,4-diamine]
33 | 0.211 | 0.375 | CC(C)c1cnc(NCC(F)(F)F)cc1Oc1cnc(N)nc1N [Compound C152]
34 | 0.166 | 0.243 | CC(C)c1cnc(-c2ccco2)cc1Oc1cnc(N)nc1N [Compound C39, 5-((2-(furan-2-yl)-5-isopropylpyridin-4-yl)oxy)pyrimidine-2,4-diamine]
35 | 0.108 | 0.141 | CC(C)c1cnc(Br)cc1Oc1cnc(N)nc1NCCO [Compound C175, 2-((2-amino-5-((2-bromo-5-isopropylpyridin-4-yl)oxy)pyrimidin-4-yl)amino)ethanol.]
36 | 0.334 | 0.506 | CC(C)c1cnc(N(C)C2CC2)cc1Oc1cnc(N)nc1N [Compound C65, 5-((2-(cyclopropyl (methyl)amino)-5-isopropylpyridin-4-yl)oxy) pyrimidine-2,4-diamine]

Row | Compound | IC50 [1] [µM] | IC50 [2] [µM]
37 | CC(C)c1cnc([Si](C)(C)C)cc1Oc1cnc(N)nc1N [Compound C133, 5-((5-isopropyl-2-(trimethylsilyl)pyridin-4-yl)oxy)pyrimidine-2,4-diamine] | 1.44 | 0.77
